Source: patent US10231939B2, “Hydroxytyrosol and oleuropein compositions for induction of DNA damage, cell death and LSD1 inhibition” (priority 2012, dated 2019)
pEC50: −log10 of the molar value.

What was measured:
Format in all cases: cell-based, human
U937 cells = assay: Cell proliferation (Cell Titer-Blue Assay); conditions: for pEC50: Homo sapiens, U-937
Source text: (§1) Human chronic myelogenous leukemia K562 cells (ATCC No. CCL-243), human large B-lymphocyte non-Hodgkin's lymphoma LCL cells, human leukemic monocyte lymphoma U937 cells (ATCC No. CRL-1593.2), human prostate adenocarcinoma PC3 (ATCC No. CRL-1435) and human gastric carcinoma SNU-16 cells (ATCC No. CRL-5974) were maintained in complete-[…] Park Memorial Institute (RPMI) 1640 medium supplemented with 20 mmol/L HEPES (pH 7.4; GIBCO-Invitrogen, Carlsbad, Calif., USA), 10% (v/v) fetal bovine serum (FBS), 2 mmol/L L-glutamine (GIBCO-Invitrogen), and 80 units gentamicin (GIBCO-Invitrogen). Cells were cultured in suspension in a humidified atmosphere of 5% (v/v) CO2 at 37° C. and were maintained in exponential growth phase. For maintenance, cells were passaged twice per week and seeded at ratios 1:10. Cell proliferation was determined using the Cell Titer-Blue Assay kit (Promega, Madison, Wis., USA). Cells were seeded at 10,000 cells per well in black flat bottom 96-well plates (Nalge Nunc, Penfield, N.Y., USA) and treated with serial doses of hydroxytyrosol (0-3200 μM) and oleuropein (0-12800 μM) for 24, 48 and 120 hours at 37° C., 5% (v/v) CO2. Following incubation with the test samples, Cell-Titer Blue reagent (20 μl per 100 μL) was added to each well and mixed gently for 5 sec prior to 4 hr incubation at 37° C. in a humidified atmosphere of 5% CO2. Fluorescence intensity (λex=550 nm and λem=615 nm) was determined using a Perkin Elmer Victor3 multilabel microplate counter (PerkinElmer, Waltham, Mass., USA). Data were expressed as % relative cell viability compared to untreated cells after correction of subtracting the media control fluorescence reading.

PC3 cells = assay: Cell proliferation (Cell Titer-Blue Assay); conditions: for pEC50: Homo sapiens, PC-3
Source text: as §1

K562 cells = assay: Cell proliferation (Cell Titer-Blue Assay); conditions: for pEC50: Homo sapiens
Source text: as §1

LCL cells = assay: Cell proliferation (Cell Titer-Blue Assay); conditions: for pEC50: Homo sapiens
Source text: as §1

PBMC = assay: Western blotting of histone methylation, PBMC; conditions: 100 μM, 24 hours
Hep G2 cells = assay: Cell proliferation (Cell Titer-Blue Assay); conditions: for pEC50: Homo sapiens, HepG2
Procedure: (§2) Human cutaneous T cell lymphoma MyLa cells expressing CD4^+ (ECACC No. 95051032) and CD8^+ (ECACC No. 95051033) were obtained from the European Culture Collection of Cell Cultures (ECACC; CAMR, Salisbury, UK) and maintained in complete-RPMI 1640 medium supplemented with 2 mM glutamine (GIBCO-Invitrogen), 10% (v/v) human AB serum (Lonza, Basel, Switzerland) and 100 u/mL IL-2 (Sigma-Aldrich, USA) or 100 u/mL IL-2 (Sigma-Aldrich, USA) with 100 u/mL IL-4 (R&D Systems, MN, USA) respectively. Cells were cultured in suspension in a humidified atmosphere of 5% (v/v) CO2 at 37° C. and were maintained in exponential growth phase. For maintenance, cells were passaged three times per week and seeded at ratios 1:2. Liver hepatocellular carcinoma Hep G2 cells (ATCC No. […]) were maintained in RPMI-1640 supplemented with 10% fetal bovine serum (FBS), and were cultured in 75 cm^2 T-flask and maintained at 37° C. in 5% CO2 humidified incubator. Cell proliferation was determined using the Cell Titer-Blue Assay kit (Promega, Madison, Wis., USA). Cells were seeded at 10,000 cells per well in black flat bottom 96-well plates (Nalge Nunc, Penfield, N.Y., USA) and treated with serial doses of hydroxytyrosol (0-3200 μM) and oleuropein (0-12800 μM) for 24, 48 and 120 hours at 37° C., 5% (v/v) CO2. Following incubation with the test samples, Cell-Titer Blue reagent (20 μl per 100 μL) was added to each well and mixed gently for 5 sec prior to 4 hr incubation at 37° C. in a humidified atmosphere of 5% CO2. Fluorescence intensity (λex=550 nm and λem=615 nm) was determined using a Perkin Elmer Victor3 multilabel microplate counter (PerkinElmer, Waltham, Mass., USA). Data were expressed as % relative cell viability compared to untreated cells after correction of subtracting the media control fluorescence reading.

MyLa CD4+ cells = assay: Cell proliferation (Cell Titer-Blue Assay); conditions: for pEC50: Homo sapiens
Procedure: as §2

MyLa CD8+ cells = assay: Cell proliferation (Cell Titer-Blue Assay); conditions: for pEC50: Homo sapiens
Procedure: as §2

pEC50 (U937 cells; U937, 24 hr)	pEC50 (U937 cells; U937, 48 hr)	pEC50 (U937 cells; U937, 120 hr)	pEC50 (PC3 cells; PC3, 24 hr)	pEC50 (PC3 cells; PC3, 48 hr)	pEC50 (PC3 cells; PC3, 120 hr)	pEC50 (K562 cells; K562, 24 hr)	pEC50 (K562 cells; K562, 48 hr)	pEC50 (K562 cells; K562, 120 hr)	Structure (SMILES)	EC10 (concentration required to reduce the cell viability of the population to 10%) (U937 cells; U937, 120 hr)	EC10 (concentration required to reduce the cell viability of the population to 10%) (PC3 cells; PC3, 120 hr)	EC10 (concentration required to reduce the cell viability of the population to 10%) (K562 cells; K562, 120 hr)	EC10 (concentration required to reduce the cell viability of the population to 10%) (LCL cells; 120 hr)	pEC50 (LCL cells; 24 hr)	pEC50 (LCL cells; 48 hr)	pEC50 (LCL cells; 120 hr)	EC10 (concentration required to reduce the cell viability of the population to 10%) (Hep G2 cells; Hep-G2, 120 hr)	pEC50 (Hep G2 cells; Hep-G2, 24 hr)	pEC50 (Hep G2 cells; Hep-G2, 48 hr)	pEC50 (Hep G2 cells; Hep-G2, 120 hr)	also measured
3.25	3.30	3.60	2.67	3.49	3.67	3.82	3.82	4.04	OCCc1ccc(O)c(O)c1 [HT, 4-(2-hydroxyethyl)-1,2-benzenediol]	370 µM	630 µM	176 µM	177 µM	3.43	3.70	4.03	360 µM	3.37	3.33	3.69	histone H3 lysine 9 (H3K9) di-methylation (PBMC): decreased; EC10 (concentration required to reduce the cell viability of the population to 10%) (MyLa CD4+ cells; 120 hr): 760 µM; pEC50 (MyLa CD4+ cells; 24 hr): 2.99; pEC50 (MyLa CD4+ cells; 48 hr): 3.06; pEC50 (MyLa CD4+ cells; 120 hr): 3.40; EC10 (concentration required to reduce the cell viability of the population to 10%) (MyLa CD8+ cells; 120 hr): 650 µM; pEC50 (MyLa CD8+ cells; 24 hr): 3.34; pEC50 (MyLa CD8+ cells; 48 hr): 3.35; pEC50 (MyLa CD8+ cells; 120 hr): 3.64
3.14	2.55	2.90	2.64	2.42	2.60	3.47	3.02	3.23	C/C=C1/[C@H](O[C@@H]2O[C@H](CO)[C@@H](O)[C@H](O)[C@H]2O)OC=C(C(=O)OC)[C@H]1CC(=O)OCCc1ccc(O)c(O)c1 [OL, oleuropein]	2600 µM	4600 µM	756 µM	1240 µM	3.39	2.96	3.19	2600 µM	3.15	2.62	2.89	EC10 (concentration required to reduce the cell viability of the population to 10%) (MyLa CD4+ cells; 120 hr): 4800 µM; pEC50 (MyLa CD4+ cells; 24 hr): 3.19; pEC50 (MyLa CD4+ cells; 48 hr): 2.42; pEC50 (MyLa CD4+ cells; 120 hr): 2.47; EC10 (concentration required to reduce the cell viability of the population to 10%) (MyLa CD8+ cells; 120 hr): 3020 µM; pEC50 (MyLa CD8+ cells; 24 hr): 3.19; pEC50 (MyLa CD8+ cells; 48 hr): 2.44; pEC50 (MyLa CD8+ cells; 120 hr): 3.57
